Data reported in patent publication US11357819B2, “Cytocidal agent” (FUJITA ACADEMY, priority 2017, dated 2022).
Entries after “also recorded” stand apart in the source; their conditions may differ. Where two headings read alike, the source gives them in different places. Where a SMILES comes first, the peptide text is derived from it. [ ]: non-standard residue; d: D form.

Key:
[1] = in vivo
Description: A weight of each mouse was measured before being died of bleeding.
As a result, in the control group into which a peptide was not administered (n=8), the number of dead individuals after 24 days from transplanting the A431-CNGB3-myc cells into the peritoneal cavity was 1, and the alive rate was […]. With respect to this, in a group into which the IF7 (RR)−(K+H) peptide was administered such that the IF7 (RR)−(K+H) peptide was 10 μg/body/day or 50 μg/body (n=6), the alive rate was 100%. In addition, at the time of the end of the test, the spread of cancer cells (A431-CNGB3-myc cells) in the peritoneal cavity of all mice was examined.

[2] = tested on: Ishikawa, SNG-II, Hec-1A and RL95-2 cells (cell strains derived from a uterine cancer cell); experiment: Cytocidal activity by relative ATP amount (CellTiter-Glo) in cell strains derived from uterine cancer cells; format: cell-based, human; settings: Example 6, 2.34 to 300.0 μM, 20 hours, FIGS. 11 to 14
Description: As the cancer-derived cell strain, an Ishikawa cell derived from human endometrium gland cancer, an SNG-II cell derived from human endometrium cancer, an Hec-1A cell derived from human uterine body cancer, and a RL95-2 cell derived from human endometrium cancer were used. The cells were cultured in the same manner as the A431-CNG133-myc cells.
The cytocidal activity of each peptide was evaluated in the same manner as that of Example 1, except that the final concentration of each peptide added to each cell disseminated into the 96-well plate was set to be 0 (peptide non-added), 2.34, 4.69, 9.38, 18.8, 37.5, 75.0, 150.0, or 300.0 μM. A relative fluorescence intensity (%) of each reaction solution in a case Where the fluorescence intensity (RLU) of the reaction solution to which no peptide was added was set to 100% was calculated as a relative ATP amount (%). In the figure, the “14D−Z13+5D−Z13” represents a relative ATP amount of the reaction solution to which both of a peptide A2-1 and a peptide A2-2 were added, the “14D−Z13” represents a relative ATP amount of the reaction solution to which only the peptide A2-1 was added, the “5D−Z13” represents a relative ATP amount of the reaction solution to Which only the peptide A2-2 was added, and the “14D−5D−Z13” represents a relative ATP amount (%) of the reaction solution to which only the peptide A2 was added, respectively.

A431-CNGB3-myc cells = experiment: Cytocidal activity by ATP amount (CellTiter-Glo luminescence) in peptide-treated A431-CNGB3-myc cells; format: cell-based, human; settings: for cytocidal activity (relative ATP amount %): Example 6, A431-CNGB3-myc cells, 2.34 to 300.0 μM, FIG. 10
Description: A transformed cell (A431-CNGB3-myc cell) obtained by introducing a gene encoding human CNGB3, in which an myc tag was fused in a C-terminal, into an A431 cell (human epithelial-like cell cancer-derived cell strain) and forcibly expressing thereof was prepared as an endometriosis model cell.
Culturing of the A431-CNGB3-myc cell was performed at 37° C. in a 5 volume % carbon dioxide environment using a medium in which 10% of inactivated FBS (bovine fetal serum, manufactured by Corning Corporation) and 1% of penicillin-streptomycin (manufactured by Invitrogen Corporation) were contained in a DMEM High Glucose medium (manufactured by GIBCO Corporation), as a culture medium. Passage was performed every two or three days.
The cytocidal activity of each peptide was evaluated by measuring an ATP amount in A431-CNGB3-myc cells treated with each peptide using CellTiter-Glo (registered trademark) assay kit (manufactured by Promega).
Specifically, first, A431-CNGB3-myc cells after 2 passages were disseminated into a 96-well plate (manufactured by Corning/Costar, Lot No. 00515003) so as to be 1×10^4 cells/well by preparing the concentration of the cells. After culturing for 2 days after the dissemination, each peptide was added to each well such that a final concentration was […], 75, or 150 μM, respectively, and cultured for 24 hours. Thereafter, the culture supernatant was removed from each well, and CellTiter-Glo buffer was added to the remaining cells, and after homogenization, the supernatant was recovered by centrifugation and used as a lysate. A double quantity of PBS and a 2×CellTiterGlo Reagent of the equivalent amount of the lysate were added to the lysate and stirred to obtain a reaction solution, and the reaction solution was stood at room temperature for 10 minutes. The luminescence intensity (Luminescence) (RLU: RELATIVE LIGHT UNITS) of the reaction solution after standing at room temperature was measured using a Synergy H1 hybrid multi-mode microplate reader (manufactured by BioTek Corporation). The luminescence intensity of the reaction solution is an indicator of the amount of ATP. It is shown that the smaller the luminescence intensity of the reaction solution is, the amount of ATP is small, and the cytocidal activity of the administered peptide is strong. All trials were measured in triplicate and the average was evaluated as the cytocidal activity at the concentration of each peptide.
The final concentration of each peptide added to the A431-CNGB3-myc cells disseminated into the 96-well plate was set to be 2.34, 4.69, 9.38, 18.8, 37.5, 75, or 150 μM, and the cytocidal activity of each peptide was evaluated in the same manner as that of Reference Example 1, except that the culture time after addition of the peptide was set to 20 hours. In the evaluation of the cytocidal activity against the A431-CNGB3-myc cells of each peptide, the measurement result of the fluorescence intensity (RLU) of each reaction solution is shown in FIG. 2. In the figure, “1” to “16” show the result of the reaction solution to which peptides 1 to 16 of Table 2 were added, respectively.
The cytocidal activity of each peptide was evaluated in the same manner as that of Example 1, except that the final concentration of each peptide added to each cell disseminated into the 96-well plate was set to be 0 (peptide non-added), 2.34, 4.69, 9.38, 18.8, 37.5, 75.0, 150.0, or 300.0 μM. A relative fluorescence intensity (%) of each reaction solution in a case Where the fluorescence intensity (RLU) of the reaction solution to which no peptide was added was set to 100% was calculated as a relative ATP amount (%). […]

[3] = Example 1, peptide 2.34 to 150 μM, 20 hours, FIG. 2
[4] = Reference Example 1, peptide 35.5, 75 or 150 μM, 24 hours, FIG. 1

Molecule: CC[C@H](C)[C@H](N)C(=O)N[C@@H](Cc1ccccc1)C(=O)N[C@@H](CC(C)C)C(=O)N[C@@H](CC(C)C)C(=O)N[C@@H](Cc1c[nH]c2ccccc12)C(=O)N[C@@H](CCC(N)=O)C(=O)N[C@@H](CCCNC(=N)N)C(=O)N[C@@H](CCCNC(=N)N)C(=O)N[C@@H](CCCNC(=N)N)C(=O)N[C@H](CCCCN)C(=O)N[C@H](CC(C)C)C(=O)N[C@H](C)C(=O)N[C@H](CCCCN)C(=O)N[C@H](CC(C)C)C(=O)N[C@H](C)C(=O)N[C@H](CCCCN)C(=O)N[C@H](CCCCN)C(=O)N[C@H](CC(C)C)C(=O)N[C@H](C)C(=O)N[C@H](CCCCN)C(=O)N[C@H](CC(C)C)C(=O)N[C@H](C)C(=O)N[C@H](CCCCN)C(=O)N[C@H](Cc1c[nH]cn1)C(=O)N[C@H](CC(C)C)C(=O)N[C@H](C)C(=O)N[C@H](Cc1c[nH]cn1)C(=O)N[C@H](CC(C)C)C(=O)O [IF7 (RR)−(K+H) peptide, IFLLWQR-RR-KLAKLAK-KLAKLAK-HLAHL] (H-IFLLWQRRR[dK][dL][dA][dK][dL][dA][dK][dK][dL][dA][dK][dL][dA][dK][dH][dL][dA][dH][dL]-OH)
- weight of each mouse [1]: no particular change

Molecule: CC(C)C[C@@H](NC(=O)[C@H](N)CCCCN)C(=O)N[C@H](C)C(=O)N[C@H](CCCCN)C(=O)N[C@H](CC(C)C)C(=O)N[C@H](C)C(=O)N[C@H](CCCCN)C(=O)N[C@H](CCCCN)C(=O)N[C@H](CC(C)C)C(=O)N[C@H](C)C(=O)N[C@H](CCCCN)C(=O)N[C@H](CC(C)C)C(=O)N[C@H](C)C(=O)N[C@H](CCCCN)C(=O)N[C@H](Cc1c[nH]cn1)C(=O)N[C@H](CC(C)C)C(=O)N[C@H](C)C(=O)N[C@H](Cc1c[nH]cn1)C(=O)N[C@H](CC(C)C)C(=O)N[C@H](C(=O)N[C@@H](CCCNC(=N)N)C(=O)N[C@@H](CCCNC(=N)N)C(=O)N[C@@H](C)C(=O)N[C@@H](CC(=O)O)C(=O)N[C@@H](CC(N)=O)C(=O)N[C@@H](CCCNC(=N)N)C(=O)N1CCC[C@H]1C(=O)NCC(=O)O)C(C)C [Peptide A2, KLAKLAK-KLAKLAK-HLAHL-VRRADNRPG] (H-[dK][dL][dA][dK][dL][dA][dK][dK][dL][dA][dK][dL][dA][dK][dH][dL][dA][dH][dL]VRRADNRPG-OH)
- weight of each mouse ([1]; ip): no particular change

Molecule: HLAHL-VRRADNRPG (HLAHLVRRADNRPG; KLAK(14)-HLAH(5)-Z13 peptide) [Peptide A2-2]
- cytocidal activity (relative ATP amount %) [2]: hardly observed or significantly weak
- cytocidal activity (relative ATP amount %) (A431-CNGB3-myc cells; 20 hours): hardly observed or significantly weak

Molecule: HLAHLAH-HLAHLAH-KLAKLAK-VRRADNRPG (HLAHLAHHLAHLAHKLAKLAKVRRADNRPG; HLAH(14)-KLAK(13)-Z13 peptide) [Peptide 16]
- cytocidal activity, comparison between peptides (A431-CNGB3-myc cells; [3]): stronger cytocidal activity than the longest peptide 9

Molecule: KLAKLAK-KLAKLAK-HLAHLAH-HLAHLAH-VRRADNRPG (KLAKLAKKLAKLAKHLAHLAHHLAHLAHVRRADNRPG; D-residues) [WT]
- cytocidal activity (luminescence intensity RLU, indicator of ATP amount) (A431-CNGB3-myc cells; [4]): concentration-dependent cytocidal activity
- cytocidal activity, comparison between peptides (A431-CNGB3-myc cells; [4]): stronger cytocidal activity than the peptide D5E

Molecule: KLAKLAK-KLAKLAK-HLAHLAH-HLAHLAH-VRRAENRPG (KLAKLAKKLAKLAKHLAHLAHHLAHLAHVRRAENRPG; KLAK(14)-HLAH(14)-D5E peptide) [Peptide D5E]
- cytocidal activity (luminescence intensity RLU, indicator of ATP amount) (A431-CNGB3-myc cells; [4]): concentration-dependent cytocidal activity

Molecule: KLAKLAK-KLAKLAK-HLAHLAH-VRRADNRPG (KLAKLAKKLAKLAKHLAHLAHVRRADNRPG; KLAK(14)-HLAH(7)-Z13 peptide) [Peptide 8]
- cytocidal activity, comparison between peptides (A431-CNGB3-myc cells; [3]): stronger cytocidal activity than the longest peptide 1; also recorded: strongest cytocidal activity

Molecule: KLAKLAK-KLAKLAK-VRRADNRPG (KLAKLAKKLAKLAKVRRADNRPG; KLAK(14D)-Z13 peptide) [Peptide A2-1]
- cytocidal activity (relative ATP amount %) [2]: hardly observed or significantly weak
- cytocidal activity (relative ATP amount %) (A431-CNGB3-myc cells; 20 hours): hardly observed or significantly weak
